Test results: patent US8916702B2 (priority 2012, dated 2014)
Like-named read-outs stand apart in the source and are kept apart here.

Tested on: HCV pseudoparticles (genotype 1a HCV E1 and E2 envelope, H77C isolate)
Experiment: microbe, parasite or virus in culture
Assay type: cell-based
Settings: Hepatitis C virus
[1] = Huh-7, 48 h, read-out: Activity (EC50 class), HCV pseudoparticles, Huh7 cells, luciferase 2 days after infection, average of duplicates
[2] = Huh-7, 48 h, read-out: Activity (EC50 class), HCV pseudoparticle infection of Huh7 cells, luciferase 2 days after infection, EC50 expressed as class A/B
[3] = Huh-7, read-out: Activity (EC50 class), HCV pseudoparticles (genotype 1a, H77C) in Huh7 cells, EC50 expressed as class A/B

In the case of `COc1cccc2sc(NC(=O)C(=O)NCC(C)(C)CNC(=O)c3ccc(Nc4nc(NC5(c6ccc(Cl)cc6)CC5)nc(OCC(F)(F)F)n4)cc3F)nc12` [Compound 3814], the EC50 [1] is reported as 0.01 to 10 nM.
In the case of `COC(=O)[C@H](CNC(=O)C(=O)NCc1ccc(F)c(F)c1)NC(=O)c1ccc(Nc2nc(NC3(c4ccc(Cl)cc4)CC3)nc(OCC(F)(F)F)n2)cc1` [Compound 1136], the EC50 [2] is reported as 0.01 to 10 nM.
For `CC(C)OC(=O)c1ccc(NC(=O)C(=O)NCC(C)(C)CNC(=O)c2ccc(Nc3nc(NC4(c5ccc(Cl)cc5)CC4)nc(OCC(F)(F)F)n3)cc2)cc1` [Compound 3259], the EC50 [3] was 0.01 to 10 nM.
Work on `COc1ccc(NC(=O)C(=O)NCC(C)(C)CNC(=O)c2ccc(Nc3nc(NC4(c5ccc(Cl)cc5)CC4)nc(OCC(F)(F)F)n3)cc2)c(C)c1` [Compound 3068] yielded an EC50 [3] of 0.01 to 10 nM.
In the case of `COc1ccc(CN(CC(C)(O)CNC(=O)c2ccc(Nc3nc(NC4(c5ccc(Cl)cc5)CC4)nc(OCC(F)(F)F)n3)cc2)C(=O)C(=O)Nc2ccc(C)cc2)c(OC)c1` (stereo not drawn) [Compound 3833], the EC50 [1] is reported as 0.01 to 10 nM.
In the case of `COC(=O)[C@@H](CCNC(=O)C(=O)NCC1(CO)CC1)NC(=O)c1ccc(Nc2nc(NC3(c4ccc(Cl)cc4)CC3)nc(OCC(F)(F)F)n2)cc1` [Compound 1380], the EC50 [2] is reported as 0.01 to 10 nM.
`Cc1ccc(NC(=O)C(=O)NCC(C)(C)CNC(=O)c2ccc(Nc3nc(NC4(c5ccc(Cl)cc5)CC4)nc(OCc4cccc(Cl)c4)n3)cc2)cc1` [Compound 3844] gave an EC50 [1] of 0.01 to 10 nM.
Compound `CC(C)(CNC(=O)C(=O)Nc1ccc(Oc2ccccc2)cc1)CNC(=O)c1ccc(Nc2nc(NC3(c4ccc(Cl)cc4)CC3)nc(OCC(F)(F)F)n2)cc1` [Compound 3672] has an EC50 [1] of 0.01 to 10 nM.
For `COC(=O)[C@H](CNC(=O)C(=O)Nc1ccccc1F)NC(=O)c1ccc(Nc2nc(NC3(c4ccc(Cl)cc4)CC3)nc(OCC(F)(F)F)n2)cc1` [Compound 1253], the EC50 [2] was 0.01 to 10 nM.
With `CC(C)(CNC(=O)C(=O)Nc1ccc(C#N)cc1)CNC(=O)c1ccc(Nc2nc(NC3(c4ccc(Cl)cc4)CC3)nc(OCc3ccc(OC(F)(F)F)cc3)n2)cc1` [Compound 3852] the EC50 [1] was 0.01 to 10 nM.
Compound `CC(C)(C)c1ccc(Oc2ccc(NC(=O)C(=O)NC[C@H](NC(=O)c3ccc(Nc4nc(NC5(c6ccc(Cl)cc6)CC5)nc(OCC(F)(F)F)n4)cc3)C(=O)O)cn2)cc1` [Compound 3754] has an EC50 [1] of 0.01 to 10 nM.
`Cc1cccc(NC(=O)C(=O)NC[C@H](NC(=O)c2ccc(Nc3nc(NC4(c5ccc(Cl)cc5)CC4)nc(OCC(F)(F)F)n3)cc2)C(=O)Cl)c1` [Compound 3743] was tested, and the EC50 [1] was 0.01 to 10 nM.
With `CC(C)(CNC(=O)c1ccc(Nc2nc(NC3(c4ccc(Cl)cc4)CC3)nc(OCC(F)(F)F)n2)cc1)NC(=O)C(=O)Nc1ccc(F)cc1` [Compound 3418] the EC50 [3] was 0.01 to 10 nM.
Compound `O=C(NCC[C@H](NC(=O)c1ccc(Nc2nc(NC3(c4ccc(Cl)cc4)CC3)nc(OCC(F)(F)F)n2)cc1)C(=O)O)C(=O)NCC1OCCc2ccccc21` (stereo partly drawn) [Compound 1341] has an EC50 [2] of 0.01 to 10 nM.
In the case of `CC(C)(CNC(=O)C(=O)Nc1cccnc1)CNC(=O)c1ccc(Nc2nc(NC3(c4ccc(Cl)cc4)CC3)nc(OCC(F)(F)F)n2)cc1` [Compound 3245], the EC50 [3] is reported as 0.01 to 10 nM.
In the case of `Cc1ccc(-c2ccccc2NC(=O)C(=O)NCC(C)(C)CNC(=O)c2ccc(Nc3nc(NC4(c5ccc(Cl)cc5)CC4)nc(OCC(F)(F)F)n3)cc2)o1` [Compound 3240], the EC50 [3] is reported as 0.01 to 10 nM.
Work on `COC(=O)[C@H](CNC(=O)C(=O)Nc1cccc(C(F)(F)F)c1)NC(=O)c1ccc(Nc2nc(NC3(c4ccc(Cl)cc4)CC3)nc(OCC(F)(F)F)n2)cc1` [Compound 1251] yielded an EC50 [2] of 0.01 to 10 nM.
With `COC(=O)[C@H](CNC(=O)C(=O)Nc1ccc(-n2nc(C)cc2C)cc1)NC(=O)c1ccc(Nc2nc(NC3(c4ccc(Cl)cc4)CC3)nc(OCC(F)(F)F)n2)cc1` [Compound 3109] the EC50 [3] was 0.01 to 10 nM.
`COC(=O)/C(CCNC(=O)C(=O)Nc1ccc(C)nc1)=N\C(=O)c1ccc(Nc2nc(NC3(c4ccc(Cl)cc4)CC3)nc(OCC(F)(F)F)n2)cc1` [Compound 3590] gave an EC50 (Huh-7, 48 h, HCV pseudoparticles (genotype 1a, H77C) in Huh7 cells, average of duplicate, luciferase 2 days after infection) of 0.16 nM and an EC50 [3] of 0.01 to 10 nM.
In the case of `COC(=O)[C@H](CCNC(=O)C(=O)Nc1cccnc1OC)NC(=O)c1ccc(Nc2nc(NC3(c4ccc(Cl)cc4)CC3)nc(OCC(F)(F)F)n2)cc1` [Compound 1216], the EC50 [2] is reported as 0.01 to 10 nM.
